Measured values published in patent publication US20110251219A1, “TREATMENT FOR GLOMERULONEPHRITIS WITH 2-[4-(7-ETHYL-5H-PYRROLO[2,3-B]PYRAZIN-6-YL)PHENYL]PROPAN-2-OL” (SANOFI, priority 2008, published 2011).
Values joined by “and” are separate entries in the source; they are usually repeats but may differ in a detail not shown here. Equal values may be shown once.

Tests used:
Syk kinase = Syk kinase (Homo sapiens, UniProt P43405); conditions: as described in WO2008/033798; cited from earlier work
[1] = test system: glomerulonephritis induced by a 30 microgram intravenous injection of clone a84 (IgG2a); assay: a84 antibody-induced glomerulonephritis animal model, urinary protein levels; type: in vivo, Rat, WKY; conditions: for % Inhibition of Total Urinary Protein Levels (mg), individual animal / % Inhibition of Total Urinary Protein Levels (mg), Mean: 30 ug a84 antibody iv; for % Inhibition of Total Urinary Protein Levels (mg), Mean: urine day 6-7 (16 h), male WKY rats, group mean
From the text: Study Objective: Glomerulonephritis is a complex disease involving cytokines, cell infiltration, cell proliferation, and rapid deterioration of renal function. This animal model will provide a relatively short term and quantitative measurement of glomerulonephritis. This study was designed to determine if a compound of Formula I will reduce glomerulonephritis induced by a 30 microgram intravenous injection of clone a84 (IgG2a). This monoclonal antibody induces disease by binding to a glomerular basement membrane protein. Disease progression is monitored in two ways in this model. First, the levels of protein in excreted urine are assessed. This readout serves as a rapid marker of renal diseased. The second mechanism by which disease is monitored is by examining the substructure of the kidney via histological examination.
Aim of Study: Glomerulonephritis is a complex disease involving cytokines, cell infiltration, cell proliferation, and rapid deterioration of renal function. This animal model provided a relatively short term and quantitative measurement of glomerulonephritis. This study was designed to determine if the compound of Formula I as hydrochloride salt will reduce glomerulonephritis induced by a 30 microgram intravenous injection of clone a84 (IgG2a).
Species, Strain, Supplier: Rat, WKY, Charles River
Duration and Frequency of Treatment: Animals in groups B through F and H through L received a 30 ug iv injection of a84 antibody on day 0 approximately 1 hour post dose.
Route of Administration: Oral gavage
Duration and Frequency of Treatment: Each animal in groups C, D, and E received an A.M. and P.M. dose approximately 8 hours apart from day 0 through day 6. Each animal in groups I, J, and K received an A.M. and P.M. dose approximately 8 hours apart from day 0 through day 3. Dosing was initiated on day 0 approximately 1 hour prior to a84 antibody injection.
Route of Administration: intraperitoneal (ip)
Duration and Frequency of Treatment: Each animal in groups F and L received an A.M. dose on day 0 approximately 1 hour prior to a84 antibody injection and a PM dose on day 3.
Kit: Rat Urinary Protein Assay Kit
Study Parameters Rat urinary proteins was measured over approximately a 16 hour period from day 6 to day 7. The kidneys were harvested for histological evaluation and for possible mRNA isolation.
Evaluation Method: Rat urinary protein levels was determined by the kit described in section 2.3.
Chronology of Examinations and/or Sampling: 1) Rats were placed into six groups of eight, six groups of 4, and one group of 3 based on compound and dose administered: Group A Vehicle (0.5% methyl cellulose containing 0.2% tween 80)+IV saline injection n=8, Group B Vehicle (0.5% methyl cellulose containing 0.2% tween 80)+IV a84 antibody injection n=8, Group C Compound of Formula I as hydrochloride salt 3.0 mg/kg+IV a84 antibody injection n=8, Group D SAR397769A 10 mg/kg+IV a84 antibody injection n=8, Group E Compound of Formula I as hydrochloride salt 30 mg/kg+IV a84 antibody injection n=8, Group F Enbrel 5.0 mg/kg+IV a84 antibody injection, Group G Vehicle (0.5% methyl cellulose containing 0.2% tween 80)+IV saline injection n=4, Group H Vehicle (0.5% methyl cellulose containing 0.2% tween 80)+IV a84 antibody injection n=4, Group I Compound of Formula I as hydrochloride salt 3.0 mg/kg+IV a84 antibody injection n=4, Group J SAR397769A 10 mg/kg+IV a84 antibody injection n=4, Group K Compound of Formula I as hydrochloride salt 30 mg/kg+IV a84 antibody injection n=4, Group L Enbrel 5.0 mg/kg+IV a84 antibody injection n=4, and Group M Naïve n=3. 2) On day 0, rats were dosed one hour prior to a84 antibody injection. Animals in groups A through E, and G through K were dosed orally. Dosing continued twice daily in groups A through E from day 0 to day 6 with approximately 8 hours between doses. Dosing continued twice daily in groups G through K from day 0 to day 3 with approximately 8 hours between doses. […]

Molecule	Syk kinase inhibition (Syk kinase)	% Inhibition of Total Urinary Protein Levels (mg), individual animal ([1]; 3.0 mg/kg oral gavage twice daily day 0-6, single animals 1-8)	% Inhibition of Total Urinary Protein Levels (mg), Mean ([1]; 3.0 mg/kg oral gavage twice daily day 0-6) [%]	% Inhibition of Total Urinary Protein Levels (mg), Mean ([1]; 3.0 mg/kg oral gavage twice daily day 0-6, listed as compound of Formula I) [%]	% Inhibition of Total Urinary Protein Levels (mg), individual animal ([1]; 10 mg/kg oral gavage twice daily day 0-6, single animals 1-8)	% Inhibition of Total Urinary Protein Levels (mg), Mean ([1]; 10 mg/kg oral gavage twice daily day 0-6) [%]	% Inhibition of Total Urinary Protein Levels (mg), Mean ([1]; 10 mg/kg oral gavage twice daily day 0-6, listed as compound of Formula I) [%]	% Inhibition of Total Urinary Protein Levels (mg), individual animal ([1]; 30 mg/kg oral gavage twice daily day 0-6, single animals 1-8)	% Inhibition of Total Urinary Protein Levels (mg), Mean ([1]; 30 mg/kg oral gavage twice daily day 0-6) [%]	% Inhibition of Total Urinary Protein Levels (mg), Mean ([1]; 30 mg/kg oral gavage twice daily day 0-6, listed as compound of Formula I) [%]	reduction of urinary protein levels compared with positive control (Enbrel) ([1]; 30 mg/kg versus Enbrel 5.0 mg/kg)	% Inhibition of Total Urinary Protein Levels (mg), individual animal ([1]; 5.0 mg/kg ip on day 0 and day 3, single animals 1-7)	% Inhibition of Total Urinary Protein Levels (mg), Mean ([1]; 5.0 mg/kg ip on day 0 and day 3) [%]
CCc1c(-c2ccc(C(C)(C)O)cc2)[nH]c2nccnc12 [Exp Cmpd, 2-[4-(7-Ethyl-5H-pyrrolo [2,3-b]pyrazin-6-yl)-phenyl]-propan-2-ol]	Syk kinase inhibitor	−0.60% and 9.50% and −5.97% and 54.11% and 43.80% and 42.33% and 65.58% and −3.63%	25.64	25	46.17% and 64.93% and 71.77% and 76.96% and 81.22% and 43.56% and 35.61% and 11.63%	53.98	53	84.66% and 85.65% and 79.73% and 86.92% and 88.28% and 84.82% and 81.26% and 92.32%	85.46	85	significantly better than the positive control		
Enbrel [reference compound]												50.26% and 33.67% and 61.10% and 46.54% and 58.91% and 63.92% and 22.67%	48.15
